These results are taken from publication PMC11078216, “Discovery of potent and selective activity-based probes (ABPs) for the deubiquitinating enzyme USP30” (RSC Chemical Biology, 2024).

Usually pIC50 stands for the negative decadic logarithm of the IC50, by convention in mol/L.

pIC50: −log10 of the molar value.

The target in the test is T1, USP30 (Homo sapiens, UniProt Q70CQ3).
T1 construct: Catalog #E-582 residues 57-517; purchased E-582
T1 sequence (Q70CQ3 57-517): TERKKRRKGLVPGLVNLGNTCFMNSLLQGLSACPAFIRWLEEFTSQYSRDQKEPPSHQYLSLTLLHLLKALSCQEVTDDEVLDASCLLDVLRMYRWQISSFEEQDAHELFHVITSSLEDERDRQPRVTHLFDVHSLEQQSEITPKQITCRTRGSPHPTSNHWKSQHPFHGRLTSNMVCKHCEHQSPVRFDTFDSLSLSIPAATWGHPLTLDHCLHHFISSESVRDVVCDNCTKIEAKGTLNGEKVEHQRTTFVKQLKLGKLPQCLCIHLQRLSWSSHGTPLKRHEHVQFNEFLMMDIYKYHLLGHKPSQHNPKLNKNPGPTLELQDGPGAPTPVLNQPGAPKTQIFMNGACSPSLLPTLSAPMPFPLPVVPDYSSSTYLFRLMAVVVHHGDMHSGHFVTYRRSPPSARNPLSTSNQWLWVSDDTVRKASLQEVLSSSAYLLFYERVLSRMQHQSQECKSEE
Nature of the test: USP30 biochemical IC50 fluorescence polarisation assay using Ub-Lys(TAMRA)-Gly. Conditions: 30 min incubation, USP30 5 nM, Ub-Lys(TAMRA)-Gly 100 nM; read-out: IC50 against USP30. The protocol: We first confirmed biochemical inhibition of USP30 with our probes in a fluorescence polarisation (FP) assay using a TAMRA labelled Lys-Gly dipeptide linked to ubiquitin via an isopeptide bond (Ub-Lys(TAMRA)-Gly). USP30 (5 nM) was incubated across a concentration series of test compound for 30 min, followed by FP measurement after addition of Ub-Lys(TAMRA)-Gly (100 nM).
4. Biochemical and biological methods and proteomics
1) Biochemical USP30 fluorescence polarisation (FP) assay using Ub-Lys(TAMRA)-Gly a. USP30 biochemical IC50 assay
Reactions were performed in triplicate in black 384 well plates (Greiner #784076) in a final reaction volume of 21 μL. Compound dilutions were prepared at 21× final concentration (2000 nM for a final concentration of 100 nM) in 50% DMSO/water. USP30 was diluted in reaction buffer A (40 mM Tris, pH 7.5, 0.005% Tween 20, 0.5 mg/ml BSA, 5 mM betamercaptoethanol) and 10 μL of diluted 10.5 nM USP30 was added to the compound (final concentration 5 nM). Enzyme and compound were incubated for 30 min at room temperature. Reactions were initiated by the addition of 10 ul 200 nM (final concentration 100 nM) of TAMRA labeled peptide linked to ubiquitin via an iso-peptide bond (Ub-Lys(TAMRA)-Gly, UbiQ-012). Reactions were read immediately after substrate addition using a Pherastar Plus (BMG Labtech; λEx 531 nm, λEm 579 nm). IC50 values were determined by plotting percentage USP30 activity against compound concentration and fitting a four -parameter dose-response curve (Graphpad Prism 5.03). […]
Kinetic progress curves were fitted to equation y = (vi/kobs) (1 − exp(−kobs*x)) to determine the kobs value (for first 30 min data). The kobs value was then plotted against the inhibitor concentration to […]
(In fluorescence polarisation assays a small probe gives low polarisation when free and higher when bound to something large.)
With `N#CN1CC[C@H](CC(=O)Nc2cc(-c3cccc(Cl)c3)no2)C1` [compound 1, reference compound], the pIC50 is 7.74. In the case of `C#Cc1cccc(-c2cc(NC(=O)CC3CCN(C#N)C3)on2)c1` (stereo not shown) [IMP-2587] it was 7.90. In the case of `N#CN1CC[C@@H](NC(=O)c2cc(-c3ccccc3Oc3ccc(N=[N+]=[N-])cc3)n[nH]2)C1` [IMP-2586] it was 7.79. The result for `N#CN1CC[C@@H](NC(=O)c2cc(-c3ccccc3Oc3ccccc3)n[nH]2)C1` [compound 3, reference compound] reads 8.32.
